Assay results published in ChEMBL document CHEMBL4420075, “Seriniquinones, melanoma-specific anticancer agents” (2016).

What was measured:
Type in all cases: functional
SNB-75 = assay: Growth inhibition of human SNB75 cells assessed as cell growth incubated for 48 hrs by sulforhodamine B assay; parameters: concentration or dose not given beside the values
RXF 393 = assay: Growth inhibition of human RXF393 cells assessed as cell growth incubated for 48 hrs by sulforhodamine B assay; parameters: concentration or dose not given beside the values
RPMI-8226 = assay: Growth inhibition of human RPMI8226 cells assessed as cell growth incubated for 48 hrs by sulforhodamine B assay; parameters: concentration or dose not given beside the values
DU-145 = assay: Growth inhibition of human DU145 cells assessed as cell growth incubated for 48 hrs by sulforhodamine B assay; parameters: concentration or dose not given beside the values
UACC-62 = assay: Growth inhibition of human UACC62 cells assessed as cell growth incubated for 48 hrs by sulforhodamine B assay; parameters: concentration or dose not given beside the values
Malme-3M = assay: Growth inhibition of human MALME-3M cells assessed as cell growth incubated for 48 hrs by sulforhodamine B assay; parameters: scale not given: the % may be the effect or the level left
HL-60(TB) = assay: Growth inhibition of human HL-60(TB) cells assessed as cell growth incubated for 48 hrs by sulforhodamine B assay; parameters: concentration or dose not given beside the values
HOP-92 = assay: Growth inhibition of human HOP92 cells assessed as cell growth incubated for 48 hrs by sulforhodamine B assay; parameters: concentration or dose not given beside the values
CAKI-1 = assay: Growth inhibition of human Caki1 cells assessed as cell growth incubated for 48 hrs by sulforhodamine B assay; parameters: concentration or dose not given beside the values
IGROV-1 = assay: Growth inhibition of human IGROV1 cells assessed as cell growth incubated for 48 hrs by sulforhodamine B assay; parameters: scale not given: the % may be the effect or the level left
MDA-MB-468 = assay: Growth inhibition of human MDA-MB-468 cells assessed as cell growth incubated for 48 hrs by sulforhodamine B assay; parameters: concentration or dose not given beside the values
CCRF-CEM = assay: Growth inhibition of human CCRF-CEM cells assessed as cell growth incubated for 48 hrs by sulforhodamine B assay; parameters: concentration or dose not given beside the values
UO-31 = assay: Growth inhibition of human UO31 cells assessed as cell growth incubated for 48 hrs by sulforhodamine B assay; parameters: concentration or dose not given beside the values
SN12C = assay: Growth inhibition of human SN12C cells assessed as cell growth incubated for 48 hrs by sulforhodamine B assay; parameters: concentration or dose not given beside the values
SW-620 = assay: Growth inhibition of human SW620 cells assessed as cell growth incubated for 48 hrs by sulforhodamine B assay; parameters: concentration or dose not given beside the values
NCI-H522 = assay: Growth inhibition of human NCI-H522 cells assessed as cell growth incubated for 48 hrs by sulforhodamine B assay; parameters: concentration or dose not given beside the values
M14 = assay: Growth inhibition of human M14 cells assessed as cell growth incubated for 48 hrs by sulforhodamine B assay; parameters: concentration or dose not given beside the values
K562 = assay: Growth inhibition of human K562 cells assessed as cell growth incubated for 48 hrs by sulforhodamine B assay; parameters: concentration or dose not given beside the values
MCF7 = assay: Growth inhibition of human MCF7 cells assessed as cell growth incubated for 48 hrs by sulforhodamine B assay; parameters: concentration or dose not given beside the values
SF-268 = assay: Growth inhibition of human SF268 cells assessed as cell growth incubated for 48 hrs by sulforhodamine B assay; parameters: concentration or dose not given beside the values
NCI-H23 = assay: Growth inhibition of human NCI-H23 cells assessed as cell growth incubated for 48 hrs by sulforhodamine B assay; parameters: concentration or dose not given beside the values
SNB-19 = assay: Growth inhibition of human SNB19 cells assessed as cell growth incubated for 48 hrs by sulforhodamine B assay; parameters: concentration or dose not given beside the values
MOLT-4 = assay: Growth inhibition of human MOLT4 cells assessed as cell growth incubated for 48 hrs by sulforhodamine B assay; parameters: concentration or dose not given beside the values
HT-29 = assay: Growth inhibition of human HT-29 cells assessed as cell growth incubated for 48 hrs by sulforhodamine B assay; parameters: concentration or dose not given beside the values
A549 = assay: Growth inhibition of human A549/ATCC cells assessed as cell growth incubated for 48 hrs by sulforhodamine B assay; parameters: concentration or dose not given beside the values
T47D = assay: Growth inhibition of human T47D cells assessed as cell growth incubated for 48 hrs by sulforhodamine B assay; parameters: concentration or dose not given beside the values
SR = assay: Growth inhibition of human SR cells assessed as cell growth incubated for 48 hrs by sulforhodamine B assay; parameters: concentration or dose not given beside the values
SF-295 = assay: Growth inhibition of human SF295 cells assessed as cell growth incubated for 48 hrs by sulforhodamine B assay; parameters: concentration or dose not given beside the values
PC-3 = assay: Growth inhibition of human PC3 cells assessed as cell growth incubated for 48 hrs by sulforhodamine B assay; parameters: concentration or dose not given beside the values
OVCAR-8 = assay: Growth inhibition of human OVCAR8 cells assessed as cell growth incubated for 48 hrs by sulforhodamine B assay; parameters: concentration or dose not given beside the values
UACC-257 = assay: Growth inhibition of human UACC257 cells assessed as cell growth incubated for 48 hrs by sulforhodamine B assay; parameters: concentration or dose not given beside the values
NCI-H226 = assay: Growth inhibition of human NCI-H226 cells assessed as cell growth incubated for 48 hrs by sulforhodamine B assay; parameters: concentration or dose not given beside the values
TK-10 = assay: Growth inhibition of human TK10 cells assessed as cell growth incubated for 48 hrs by sulforhodamine B assay; parameters: concentration or dose not given beside the values
Hs-578T = assay: Growth inhibition of human Hs 578T cells assessed as cell growth incubated for 48 hrs by sulforhodamine B assay; parameters: concentration or dose not given beside the values
NCI-H322M = assay: Growth inhibition of human NCI-H322M cells assessed as cell growth incubated for 48 hrs by sulforhodamine B assay; parameters: scale not given: the % may be the effect or the level left
BT-549 = assay: Growth inhibition of human BT549 cells assessed as cell growth incubated for 48 hrs by sulforhodamine B assay; parameters: concentration or dose not given beside the values
MDA-MB-435 = assay: Growth inhibition of human MDA-MB-435 cells assessed as cell growth incubated for 48 hrs by sulforhodamine B assay; parameters: concentration or dose not given beside the values
NCI-H460 = assay: Growth inhibition of human NCI-H460 cells assessed as cell growth incubated for 48 hrs by sulforhodamine B assay; parameters: concentration or dose not given beside the values
COLO 205 = assay: Growth inhibition of human COLO205 cells assessed as cell growth incubated for 48 hrs by sulforhodamine B assay; parameters: concentration or dose not given beside the values
SK-MEL-28 = assay: Growth inhibition of human SK-MEL-28 cells assessed as cell growth incubated for 48 hrs by sulforhodamine B assay; parameters: concentration or dose not given beside the values
NCI/ADR-RES = assay: Growth inhibition of human NCI/ADR-RES cells assessed as cell growth incubated for 48 hrs by sulforhodamine B assay; parameters: concentration or dose not given beside the values
OVCAR-4 = assay: Growth inhibition of human OVCAR4 cells assessed as cell growth incubated for 48 hrs by sulforhodamine B assay; parameters: concentration or dose not given beside the values
SK-MEL-2 = assay: Growth inhibition of human SK-MEL-2 cells assessed as cell growth incubated for 48 hrs by sulforhodamine B assay; parameters: concentration or dose not given beside the values
LOX IMVI = assay: Growth inhibition of human LOXIMVI cells assessed as cell growth incubated for 48 hrs by sulforhodamine B assay; parameters: concentration or dose not given beside the values
786-0 = assay: Growth inhibition of human 786-0 cells assessed as cell growth incubated for 48 hrs by sulforhodamine B assay; parameters: concentration or dose not given beside the values
HCT-116 = assay: Growth inhibition of human HCT116 cells assessed as cell growth incubated for 48 hrs by sulforhodamine B assay; parameters: concentration or dose not given beside the values
HCC 2998 = assay: Growth inhibition of human HCC2998 cells assessed as cell growth incubated for 48 hrs by sulforhodamine B assay; parameters: concentration or dose not given beside the values
SK-MEL-5 = assay: Growth inhibition of human SK-MEL-5 cells assessed as cell growth incubated for 48 hrs by sulforhodamine B assay; parameters: concentration or dose not given beside the values
OVCAR-3 = assay: Growth inhibition of human OVCAR3 cells assessed as cell growth incubated for 48 hrs by sulforhodamine B assay; parameters: concentration or dose not given beside the values
KM12 = assay: Growth inhibition of human KM12 cells assessed as cell growth incubated for 48 hrs by sulforhodamine B assay; parameters: concentration or dose not given beside the values
SK-OV-3 = assay: Growth inhibition of human SKOV3 cells assessed as cell growth incubated for 48 hrs by sulforhodamine B assay; parameters: concentration or dose not given beside the values
U-251 = assay: Growth inhibition of human U251 cells assessed as cell growth incubated for 48 hrs by sulforhodamine B assay; parameters: concentration or dose not given beside the values
HOP-62 = assay: Growth inhibition of human HOP62 cells assessed as cell growth incubated for 48 hrs by sulforhodamine B assay; parameters: concentration or dose not given beside the values
A498 = assay: Growth inhibition of human A498 cells assessed as cell growth incubated for 48 hrs by sulforhodamine B assay; parameters: concentration or dose not given beside the values
MDA-MB-231 = assay: Growth inhibition of human MDA-MB-231 cells assessed as cell growth incubated for 48 hrs by sulforhodamine B assay; parameters: concentration or dose not given beside the values

SMILES: CC(C)(C)OC(=O)NCC1CN(C(=O)CCc2ccc3c(=O)c4sc5c(=O)c6ccccc6c(=O)c5c4c(=O)c3c2)C1
- Activity (SNB-75): -83.64%
- Activity (RXF 393): -48.97%
- Activity (RPMI-8226): -36.74%
- Activity (DU-145): -95.53%
- Activity (UACC-62): -68.32%
- Activity (Malme-3M): -88.84%
- Activity (HL-60(TB)): -44.47%
- Activity (HOP-92): -14.16%
- Activity (CAKI-1): 0.12%
- Activity (IGROV-1): -62.41%
- Activity (MDA-MB-468): -50.83%
- Activity (CCRF-CEM): -45.34%
- Activity (UO-31): -81.64%
- Activity (SN12C): -79.71%
- Activity (SW-620): -23.01%
- Activity (NCI-H522): -42.91%
- Activity (M14): -97.99%
- Activity (K562): -13.04%
- Activity (MCF7): -63.33%
- Activity (SF-268): -39.06%
- Activity (NCI-H23): -39.91%
- Activity (SNB-19): -4.23%
- Activity (MOLT-4): -47.44%
- Activity (HT-29): -57.09%
- Activity (A549): -66.1%
- Activity (T47D): -33.26%
- Activity (SR): -5.83%
- Activity (SF-295): -95.8%
- Activity (PC-3): 4.68%
- Activity (OVCAR-8): -55.88%
- Activity (UACC-257): -95.5%
- Activity (NCI-H226): -51.46%
- Activity (TK-10): -8.18%
- Activity (Hs-578T): -20.36%
- Activity (NCI-H322M): -94.65%
- Activity (BT-549): -94.11%
- Activity (MDA-MB-435): -97.59%
- Activity (NCI-H460): -45.51%
- Activity (COLO 205): -97.62%
- Activity (SK-MEL-28): -21.85%
- Activity (NCI/ADR-RES): -12.16%
- Activity (OVCAR-4): -90.58%
- Activity (SK-MEL-2): -50.15%
- Activity (LOX IMVI): -69.24%
- Activity (786-0): -48.69%
- Activity (HCT-116): -89.29%
- Activity (HCC 2998): -90.99%
- Activity (SK-MEL-5): -99.11%
- Activity (OVCAR-3): -33.51%
- Activity (KM12): -27.78%
- Activity (SK-OV-3): -34.85%
- Activity (U-251): -70.04%
- Activity (HOP-62): -74.88%
- Activity (A498): 35.61%
- Activity (MDA-MB-231): -12.92%
